Assay results published in patent US20230127345A1, “SELENOGALACTOSIDE COMPOUNDS FOR THE PREVENTION AND TREATMENT OF DISEASES ASSOCIATED WITH GALECTIN AND THE USE THEREOF” (GALECTIN SCIENCES, LLC, priority 2016, published 2023).

Legend:
Galectin-3 [1] = target: T1, Galectin-3 (Homo sapiens, UniProt P17931); assay: ELISA of Galectin-3 binding inhibition (anti-Galectin-3 antibodies)
From the text: (§1) Experiments have been performed to evaluate the physical interaction of galectin proteins with these various biological ligands mediating cellular functions.
Target sequence in this assay (P17931 whole entry): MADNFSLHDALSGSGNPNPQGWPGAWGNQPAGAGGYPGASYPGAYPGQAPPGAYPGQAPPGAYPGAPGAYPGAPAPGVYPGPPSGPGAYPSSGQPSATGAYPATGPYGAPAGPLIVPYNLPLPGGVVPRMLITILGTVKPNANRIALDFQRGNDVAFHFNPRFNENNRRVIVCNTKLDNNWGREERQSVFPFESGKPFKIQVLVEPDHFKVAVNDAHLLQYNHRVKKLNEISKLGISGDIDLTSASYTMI

[2] = target: Gal-3/integrins (αVβ3, αVβ6, αMβ2) (Homo sapiens, UniProt P17931); assay: gal-3/integrin interaction ELISA assay; format: biochemical; conditions: compared with TD-139 (G240); FIG. 10, 11A-11C
From the text: as §1

[3] = target: Galectin 1 and integrin aBV6 (Homo sapiens, UniProt P09382); assay: ELISA format with pairs of galectins and integrins; format: biochemical; conditions: FIG. 15
MCP-1 = assay: In-vitro inflammatory model, MCP-1 in endotoxin stressed THP-1 monocytes; format: cell-based; conditions: THP-1 stimulated with endotoxin for 5 days
Experimental: A model of macrophage polarization was set up, starting from THP-1 monocytes culture which is differentiated into inflammatory macrophages using PMA (Phorbol 12-myristate 13-acetate) for 2-4 days. Once differentiated (MO macrophages), the macrophages were induced with LPS or LPS and IFN-gamma for macrophage activation (M1) to inflammatory stage for 1-3 days. Array of cytokines and chemokines were analyzed to confirm the polarization of THP-1-derived macrophages to inflammatory stage. The impact of the anti-galectin 3 compounds on macrophage polarization was assessed first by monitoring cell viability using a colorimetric method (using a tetrazolium reagent) to determine the number of viable cells in proliferation or cytotoxicity assays (Promega, The CellTiter 96® AQueous One Solution Cell Proliferation Assay which contains a novel tetrazolium compound [3-(4,5-[…])-5-(3-carboxymethoxyphenyl)-2-(4-sulfophenyl)-2H-tetrazolium, inner salt; MTS] and an electron coupling reagent (phenazine ethosulfate; PES)) and inflammatory stage evaluated by a quantitatively measure of the chemokine Monocyte Chemoattractant Protein-1 (MCP-1/CCL2), a key protein that regulates migration and infiltration of monocytes/macrophages in cellular process of inflammation. Follow-up testing for the expression and secretion of other cytokines and chemokines were done for leading active compounds. […]

HTB-38 cells = assay: Cell culture viability, HTB-38; format: cell-based; conditions: HTB-38, exposed over 3 days in standard growth media
Experimental: Procedure for HTB-38 Cells ([…]) was as follow:
1. HTB-38 cells were resuspended in culture media containing 8 ng/ml h-IFN-gamma, 4× Pen/Strep and 10% Fetal Bovine Serum (Gibco lot# 1260930). 2. Cells were transferred at 100μl/well in assay plate (4,000-10,000 cells/well, passage# 4-30). 3. Tested compound was diluted serially in assay media as above, usually in range of 100 μg/ml to 20 ng/mL 4. 100 μl/well serial diluted compound was added in duplicate to cells. Final volume of each well was 200 μl, containing 4 ng/ml h-IFN-gamma, 2× Pen/Strep, 5. Cells were Incubate 60-90 hours at 37° C. 6. 20 μl of Promega Substrate [CellTiter 96 Aqueous One Solution] Reagent was added to each well. 7. Cells were incubated at 37° C. for 4-8 hrs and read OD at 490 nm.
(§2) Cells were exposed to the G-625 over 3 days in standard growth media.

Galectin-3 [4] = target: T1, Galectin-3; assay: Fluorescent polarization assay with fluorescent ligand; format: binding; conditions: for inhibition of Galectin-3 CRD specific fluorescent-ligand: Fluorescent polarization, inhibition curves
Target sequence in this assay (P17931 whole entry): as above

MCF-7 cells = assay: Cell culture viability, MCF-7; format: cell-based; conditions: MCF-7, exposed over 3 days in standard growth media
Experimental: Procedure for MCF-7 Cells ([…]) was as follow:
1. MCF-7 cells were resuspended in culture media containing 4× Pen/Strep and 0.25% Fetal Bovine Serum (Gibco lot# 1202161). 2. 100 ul media was added with approximately 4,000-10,000 cells/well, passage # 5 up to 30) and cells were incubated for at least 24 hrs at 37° C. 3. Tested compound was diluted serially in assay media as above, usually at a range of 100 μg/ml to 20 ng/mL 4. […] serial diluted compound was added in duplicate to cells in assay plate. Final volume of each well was […], (containing 2× Pen/Strep, 0.25% FBS and compound as indicated 5. Cells were incubated 60-80 hours at 37° C. 6. […] of Promega Substrate [CellTiter 96 Aqueous One Solution] Reagent was added to each well. 7. Cells were incubated 37° C. for 4-8 hrs and read OD at 490 nm.
as §2

Galectin-3 [5] = assay: Galectin-3 expression in TGFb1 stimulated LX-2 stellate cells, flow cytometry; format: cell-based; conditions: TGFb1, 5 days serum starved stimulated LX-2 cells
From the text: TGFb1 stimulates hepatic stellate cells into the fibrogenesis pathway leading to secretion of collagen and other fibrosis biomarkers. […] While it is known that lactose has binding affinity to Gal-3, galactose lacks this affinity. […] The result confirmed this hypothesis.

[6] = target: Galectin-9 and integrin aMB2 (Homo sapiens, UniProt O00182); assay: ELISA format with pairs of galectins and integrins; format: biochemical; conditions: FIG. 15
[7] = target: gal-3 with Integrin (aMB2) (Homo sapiens, UniProt P17931); assay: gal-3/integrin interaction ELISA, Integrin (aMB2); format: biochemical; conditions: FIG. 11D and 11E
[8] = pulmonary administration; cited from earlier work
Galectin-3 [9] = target: T1, Galectin-3; conditions: cited from earlier work
Target sequence in this assay (P17931 whole entry, species assumed): as the sequence (P17931 whole entry) above

Chain of gal-3 with Integrin (aMB2) (P17931 whole entry): as above
Chain of Galectin 1 and integrin aBV6 (P09382 whole entry, species assumed): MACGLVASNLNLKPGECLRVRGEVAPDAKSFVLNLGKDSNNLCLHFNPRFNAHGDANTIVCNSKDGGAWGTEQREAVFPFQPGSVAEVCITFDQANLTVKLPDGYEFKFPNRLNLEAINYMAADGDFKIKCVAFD
Chain of Galectin-9 and integrin aMB2 (O00182 whole entry, species assumed): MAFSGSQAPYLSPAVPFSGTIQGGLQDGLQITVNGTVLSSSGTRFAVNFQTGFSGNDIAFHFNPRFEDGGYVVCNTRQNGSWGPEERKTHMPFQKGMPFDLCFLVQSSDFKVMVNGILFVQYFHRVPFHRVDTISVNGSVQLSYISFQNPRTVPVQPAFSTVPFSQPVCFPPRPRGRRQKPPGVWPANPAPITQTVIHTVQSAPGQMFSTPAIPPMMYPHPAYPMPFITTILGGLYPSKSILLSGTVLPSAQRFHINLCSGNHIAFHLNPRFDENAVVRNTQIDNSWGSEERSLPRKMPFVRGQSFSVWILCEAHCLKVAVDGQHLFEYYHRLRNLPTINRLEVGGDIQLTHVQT
Chain of Gal-3/integrins (αVβ3, αVβ6, αMβ2) (P17931 2-250 limits assumed): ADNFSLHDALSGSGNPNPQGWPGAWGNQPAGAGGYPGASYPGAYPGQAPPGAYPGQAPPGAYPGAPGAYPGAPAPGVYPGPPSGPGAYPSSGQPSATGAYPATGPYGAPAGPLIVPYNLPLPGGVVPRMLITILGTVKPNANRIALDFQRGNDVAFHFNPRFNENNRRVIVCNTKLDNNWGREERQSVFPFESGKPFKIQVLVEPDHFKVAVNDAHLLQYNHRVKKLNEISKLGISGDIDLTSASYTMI

For `OC[C@H]1O[C@@H]([Se][C@@H]2O[C@H](CO)[C@H](O)[C@H](n3cc(-c4cccc(F)c4)nn3)[C@H]2O)[C@H](O)[C@@H](n2cc(-c3cccc(F)c3)nn2)[C@H]1O` [G-625, beta-D-Galactopyranoside, 3-deoxy-3-(4-(3-fluorophenyl)-1H-1,2,3-triazol-1-yl)-beta-D-galactopyranosyl 3-deoxy-3-(4-(3-fluorophenyl)-1H-1,2,3-triazol-1-yl)-1-seleno-], the IC50 (Galectin-3 [1]) was 14.4 nM, the “inhibition of Gal-3/integrins” value [2] was “more potent inhibitor of Gal-3/integrins than TD-139 (G240)” and the “inhibition of interaction between Galectin 1 and integrin aBV6” value [3] was “significantly inhibited”. For the same compound, the “secretion of MCP-1” value (MCP-1) was “inhibitory effect on the inflammatory stage by reducing the secretion of MCP-1”, the “cytotoxicity (cell culture viability)” value (HTB-38 cells) was “no cytotoxicity” and the IC50 (Galectin-3 [4]) was 259 nM. The “inhibition of Galectin-3 CRD specific fluorescent-ligand” value (Galectin-3 [4]) was “twice better inhibitor then G-240 (TD-139)”, the “cytotoxicity (cell culture viability)” value (MCF-7 cells) was “no cytotoxicity” and the galectin-3 expression (Galectin-3 [5]) was “enhanced activity of G-625 versus G-240”. The galectin-3 expression (Galectin-3 [5]; listed as G625) was “inhibition of galectin-3 expression” and the “inhibition of interaction between Galectin-9 and integrin aMB2” value [6] was “significantly inhibited”.
For `OCC1OC([Se][Se]C2OC(CO)C(O)C(n3cc(-c4cccc(F)c4)nn3)C2O)C(O)C(n2cc(-c3cccc(F)c3)nn2)C1O` (stereo not shown) [G-626], the IC50 (Galectin-3 [1]) was 1160 nM, the “secretion of MCP-1” value (MCP-1) was “inhibitory effect on the inflammatory stage by reducing the secretion of MCP-1” and the IC50 (Galectin-3 [4]) was 5290 nM. The “inhibition of Galectin-3 CRD specific fluorescent-ligand” value (Galectin-3 [4]) was “showed an inhibitory activity”.
In the case of `OC[C@H]1O[C@@H]([Se]Cc2ccc(F)c(F)c2)[C@H](O)[C@@H](n2cc(-c3cccc(F)c3)nn2)[C@H]1O` [G-656], the “inhibition of the interaction of gal-3 with integrin” value [7] is reported as “significantly inhibit”.
In the case of `O=C(C[Se][C@@H]1O[C@H](CO)[C@H](O)[C@H](n2cc(-c3cccc(F)c3)nn2)[C@H]1O)c1ccc(F)c(F)c1` [G-662], the “inhibition of the interaction of gal-3 with integrin” value [7] is reported as “significantly inhibit” and the “inhibition of Galectin-3 CRD specific fluorescent-ligand” value (Galectin-3 [4]) is reported as “shown to inhibit the Gal-3 binding”.
In the case of `O=C[C@H](O)[C@@H](O)[C@@H](O)[C@H](O)CO` [Galactose, reference compound], the galectin-3 expression (Galectin-3 [5]) is reported as “should not have any effect”.
In the case of `OC[C@H]1O[C@@H](O[C@H]2[C@H](O)[C@@H](O)C(O)O[C@@H]2CO)[C@H](O)[C@@H](O)[C@H]1O` (stereo partly shown) [Lactose, reference compound], the galectin-3 expression (Galectin-3 [5]) is reported as “would have effect (at relatively high concentrations)”.
In the case of `OC[C@H]1O[C@@H](S[C@@H]2O[C@H](CO)[C@H](O)[C@H](n3cc(-c4cccc(F)c4)nn3)[C@H]2O)[C@H](O)[C@@H](n2cc(-c3cccc(F)c3)nn2)[C@H]1O` [TD-139, beta-D-Galactopyranoside, 3-deoxy-3-(4-(3-fluorophenyl)-1H-1,2,3-triazol-1-yl)-beta-D-galactopyranosyl 3-deoxy-3-(4-(3-fluorophenyl)-1H-1,2,3-triazol-1-yl)-1-thio-], the “efficacy in mouse model of lung fibrosis” value [8] is listed as “effective” and the “binding to galectin 3” value (Galectin-3 [9]) is listed as “reported to bind to galectin 3”.
